Measurements as given in US10336684B2, “Phenyl-(aza)cycloalkyl carboxylic acid GPR120 modulators” (BRISTOL-MYERS SQUIBB COMPANY, priority 2014, dated 2019).

Target: human GPR120 (Homo sapiens (Human), UniProt Q5NUL3)
Assay: GPR120 pERK AlphaScreen SureFire assay (human GPR120 pERK assay)
Format: cell-based
Details: CHOA12 or CHO-K1 cells stably transfected with short form of human GPR120, 100% = 50 μM linolenic acid
Text: GPR120 activity was monitored by measuring phosphorylation of ERK (pERK), since G protein receptors are known to activate the ERK signaling cascade either directly and/or through recruitment of arrestin that serves as a scaffold for downstream signaling events.
GPR120 pERK AlphaScreen SureFire Assay
The human and mouse GPR120-mediated intracellular phosphorylated ERK assays were established using CHOA12 cells stably transfected with the short form of human or mouse GPR120 receptor. Cells were cultured in growth medium consisting of F-12 media (Invitrogen Cat. #11765) with 5% Charcoal/Dextran FBS (Invitrogen Cat. #12676-029), 500 μg/mL GENETICIN® (Life Technologies Cat. #10131-027) and 250 μg/mL Zeocin (Invitrogen Cat. #R250-01). Cells were cryo preserved at a concentration of 2×10^7 cells/mL, in 90% Charcoal/Dextran FBS and 10% DMSO, and frozen in liquid nitrogen at a low passage number.
For the pERK assay, 2×10^7 cells/mL cryopreserved human and mouse cells were thawed rapidly in a 37° C. water bath and added to a T-225 flask containing 50 mL growth medium. The flasks were placed in a tissue culture incubator overnight (37° C., 5% CO2). The next day, cells were harvested with trypsin (Gibco Cat. #25300-054), resuspended in serum-containing growth medium and counted using a Cellometer and volume adjusted to a concentration of 0.6×10^6 cells/mL. Cells were plated into 384-well clear bottom tissue culture plates (BD Cat. #353962) at 50 μL/well, for a density of 30,000 cells/well using a MULTIDROP® and incubated for 16-18 hours (overnight) at 37° C. with 5% CO2. The next day, cells were serum starved in 30 μL of F-12 media without any serum or antibiotics for 2 hours at 37° C.
Test compounds were 3-fold, 11-point serially diluted in DMSO in a REMP assay plate (Matrix Cat. #4307) by Tecan and 5 μL was transferred into an ECHO source plate (Labcyte Cat. #LC-0200). Cells were then stimulated with 50 nL of compound dilutions using ECHO liquid handler for 7 minutes at 37° C. Compounds ranged from final assay concentrations of 33.33 μM to 0.56 nM.
The media was then dumped and cells lysed with 20 μL of 1× Lysis buffer from the AlphaScreen SureFire Phospho-ERK 1/2 Kit (Perkin Elmer Cat. #6760617M). The lysis buffer was diluted 5-fold with water before use. The plate was agitated on a shaker for 10 minutes after which 2 μL was transferred into a 384-well white proxiplate (Perkin Elmer Cat. #6008289). The SureFire assay reagent mix was prepared by mixing 60 parts Reaction Buffer, 10 parts Activation Buffer, 1 part Donor Beads, 1 part Acceptor Beads (Perkin Elmer Cat. #TGRES10K). 3.5 μL/well of this reagent mix was manually added to the proxiplate with a multichannel pipettor. Plates were spun down at 1000 rpm for 2 minutes, followed by light-protected incubation at room temperature for 2 hours. The plates were read on the Alpha-technology compatible Envision multilabel plate reader using AlphaScreen protocol according to manufacturer's specifications. The agonist effect of compounds was expressed as 100×(average sample-average blank)/(average total−average blank) where sample is the luminescence activity in the presence of test compound, blank is equal to the luminescence activity in the presence of DMSO control and the total is signal induced by 50 μM linolenic acid as reference compound. Activation data for the test compound over a range of concentrations was plotted as percentage activation of the test compound (100%=maximum response). After correcting for background, EC50 values were determined. The EC50 is defined as the concentration of test compound which produces 50% of the maximal response and was quantified using the 4 parameter logistic equation to fit the data.
The human and mouse GPR120-mediated intracellular phosphorylated ERK assays were also established using CHO-K1 cells stably transfected with the short form of human or mouse GPR120 receptor. […]

Chain of human GPR120 (Q5NUL3 whole entry): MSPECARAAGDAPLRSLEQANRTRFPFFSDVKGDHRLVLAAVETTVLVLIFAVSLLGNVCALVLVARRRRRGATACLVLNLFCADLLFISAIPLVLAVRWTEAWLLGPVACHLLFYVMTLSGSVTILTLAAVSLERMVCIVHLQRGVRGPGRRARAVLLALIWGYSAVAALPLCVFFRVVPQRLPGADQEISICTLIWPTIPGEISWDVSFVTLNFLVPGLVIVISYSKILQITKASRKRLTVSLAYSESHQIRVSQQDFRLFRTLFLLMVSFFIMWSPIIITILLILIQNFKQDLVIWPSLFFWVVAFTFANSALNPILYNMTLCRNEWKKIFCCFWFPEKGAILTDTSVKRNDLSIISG

Row | EC50 | Structure (SMILES)
1 | 1.03 µM | O=C(O)CCCCc1ccc(C2CCCCC(Oc3ccccc3)C2)cc1 (single isomer, unassigned) [Example 13, 5-(4-(3-Phenoxycycloheptyl)phenyl)pentanoic acid]
2 | 1.9 µM | O=C(O)[C@@H]1C[C@H]1CCc1ccc(N2CCC[C@H](Oc3ccccc3)C2)cc1 [Example 51]
3 | 3.38 µM | O=C(O)CCCCc1ccc(N2CC[C@@H](Oc3ccccc3)C2)cc1 [Example 61]
4 | 3.12 µM | O=C(O)CCCCc1ccc(C2CCCCC(Oc3ccccc3Cl)C2)cc1 (stereo not drawn) [Example 46]
5 | 0.54 µM | O=C(O)CCCCc1c(F)cc(N2CCC[C@H](Oc3ccccc3)C2)cc1F [Example 25, (S)-5-(2,6-Difluoro-4-(3-phenoxypiperidin-1-yl)phenyl)pentanoic acid]
6 | 0.22 µM | O=C(O)CCCCc1ccc(N2CC[C@H](Oc3ccccc3)C2)cc1 [Example 60]
7 | 0.48 µM | O=C(O)CCCCc1ccc([C@@H]2CCC[C@H](Oc3ccccc3)C2)cc1 (single isomer, unassigned) [Example 1, 5-(4-((+/−)-3-Phenoxycyclohexyl)phenyl)pentanoic acid]
8 | 4.98 µM | O=C(O)[C@@H]1C[C@@H]1COc1ccc(N2CCCC(Oc3ccccc3)C2)cc1 (single isomer, unassigned) [Example 28, (+/−)-2-((4-(3-Phenoxypiperidin-1-yl)phenoxy)methyl)cyclopropanecarboxylic acid]
9 | 0.32 µM | O=C(O)COCCc1ccc([C@@H]2CCC[C@H](Oc3ccccc3)C2)cc1 (single isomer, unassigned) [Example 4, 2-(4-((+/−)-3-Phenoxycyclohexyl)phenethoxy)acetic acid]
10 | 0.6 µM | O=C(O)[C@H]1C[C@@H]1COc1ccc(C2CCCC(Oc3ccccc3)C2)cc1 (mixture of isomers) [Example 11, (1S,2S)-2-((4-((+/−)-3-Phenoxycyclohexyl)phenoxy)methyl)cyclopropanecarboxylic acid]
11 | > 16 µM | CC(C)O[C@H]1CCC[C@@H](c2ccc(OC[C@H]3C[C@@H]3C(=O)O)cc2)C1 (racemic) [Example 43]
12 | 0.5 µM | O=C(O)CCCCc1ccc(N2CCC[C@H](Oc3ccccc3)C2)cc1 [Example 23, (S)-5-(4-(3-Phenoxypiperidin-1-yl)phenyl)pentanoic acid]
13 | 0.93 µM | O=C(O)CCCCc1ccc(N2CCC[C@H](Oc3ccc(F)cc3)C2)cc1 [Example 24, (S)-5-(4-(3-(4-Fluorophenoxy)piperidin-1-yl)phenyl)pentanoic acid]
14 | 1.03 µM | O=C(O)COCCc1ccc([C@H]2CCC[C@@H](Oc3ccccc3)C2)cc1 (single isomer, unassigned) [Example 5]
15 | 2.02 µM | O=C(O)CCCCc1ccc(C2CCCCC(Oc3cccc(Cl)c3)C2)cc1 (stereo not drawn) [Example 45]
16 | 4.13 µM | O=C(O)COCCCc1ccc(N2CCCC(Oc3ccccc3)C2)cc1 (stereo not drawn) [Example 27, 2-(3-(4-(3-Phenoxypiperidin-1-yl)phenyl)propoxy)acetic acid]
17 | 0.3 µM | Cc1ccc(O[C@H]2CCC[C@@H](c3ccc(CCOCC(=O)O)cc3)C2)cc1F (racemic) [Example 34]
18 | 6.26 µM | O=C(O)[C@@H]1C[C@H]1CCc1ccc(N2CCC[C@@H](c3ccccc3)C2)cc1 [Example 55]
19 | 1.54 µM | O=C(O)[C@@H]1C[C@H]1CCc1ccc(N2CCC[C@H](Oc3ccc(F)cc3)C2)cc1 [Example 52]
20 | 3.24 µM | N#Cc1ccc(O[C@H]2CCC[C@@H](c3ccc(CCOCC(=O)O)cc3)C2)cc1 (racemic) [Example 39]
21 | 1.99 µM | O=C(O)COCCc1ccc(C2CCCCC(Oc3ccccc3)C2)cc1 (single isomer, unassigned) [Example 15, 2-(4-(3-Phenoxycycloheptyl)phenethoxy)acetic acid]
22 | 1.34 µM | O=C(O)[C@H]1C[C@@H]1CCc1ccc(N2CCC[C@H](c3ccccc3)C2)cc1 [Example 54]
23 | 10.3 µM | O=C(O)[C@@H]1C[C@H]1CCc1ccc(N2CCCC(Oc3ccccc3)CC2)cc1 (stereo partly drawn) [Example 62]

Row | EC50 | Structure (SMILES)
24 | 1.61 µM | Cc1ccc(O[C@H]2CCC[C@@H](c3ccc(CCOCC(=O)O)cc3)C2)cn1 (racemic) [Example 35]
25 | 1.45 µM | O=C(O)[C@H]1C[C@@H]1CCc1ccc([C@H]2CCCC(Oc3ccccc3)C2)cc1 (single isomer, unassigned) [Example 8]
26 | 0.53 µM | O=C(O)CCCCc1ccc(C2CCCCC(Oc3ccc(Cl)cc3)C2)cc1 (stereo not drawn) [Example 44]
27 | 1.16 µM | CC(C)O[C@H]1CCC[C@@H](c2ccc(CCCCC(=O)O)cc2)C1 (single isomer, unassigned) [Example 3, 5-(4-((+/−)-3-Isopropoxycyclohexyl)phenyl)pentanoic acid]
28 | 0.75 µM | O=C(O)COCCc1ccc(C2CCCCC(Oc3ccccc3)C2)cc1 (single isomer, unassigned) [Example 16, 2-(4-(3-Phenoxycycloheptyl)phenethoxy)acetic acid]
29 | 5.27 µM | O=C(O)COCCc1ccc(N2CCC(Oc3ccccc3)C2)cc1 (stereo not drawn) [Example 59]
30 | 0.65 µM | O=C(O)[C@H]1C[C@@H]1CCc1ccc([C@@H]2CCCC(Oc3ccccc3)C2)cc1 (single isomer, unassigned) [Example 9]
31 | > 32 µM | O=C(O)[C@H]1C[C@@H]1COc1ccc([C@@H]2CCC[C@@H](Oc3ccccc3)C2)cc1 (racemic) [Example 42]
32 | 4.09 µM | O=C(O)CCCCc1ccc(N2CCC(Oc3ccccc3)CC2)cc1 [Example 58]
33 | 2.13 µM | O=C(O)COCCc1ccc(C2CCC(Oc3ccccc3)C2)cc1 (stereo not drawn) [Example 19, 2-(4-(3-Phenoxycyclopentyl)phenethoxy)acetic acid]
34 | 0.53 µM | O=C(O)[C@@H]1C[C@H]1CCc1ccc([C@@H]2CCC[C@H](Oc3ccccc3)C2)cc1 (single isomer, unassigned) [Example 10]
35 | 0.92 µM | O=C(O)[C@H]1C[C@@H]1CCc1ccc([C@@H]2CCC[C@H](Oc3ccccc3)C2)cc1 (single isomer, unassigned) [Example 7]
36 | 1.94 µM | O=C(O)[C@@H]1C[C@H]1CCc1ccc([C@@H]2CCC[C@@H](Oc3ccccc3)C2)cc1 (racemic) [Example 41]
37 | 0.31 µM | Cc1ccc(O[C@H]2CCC[C@@H](c3ccc(CCOCC(=O)O)cc3)C2)cc1 (racemic) [Example 36]
38 | 4.84 µM | O=C(O)[C@@H]1C[C@H]1CCc1ccc(N2CCC[C@H](c3ccccc3)C2)cc1 [Example 56]
39 | 0.41 µM | O=C(O)[C@@H]1C[C@H]1CCc1ccc(N2CCC[C@@H](Oc3ccccc3)C2)cc1 [Example 50]
40 | 0.57 µM | O=C(O)CCCCc1ccc(N2CCC[C@H](Oc3ccccc3)C2)cc1F [Example 26, (S)-5-(2-Fluoro-4-(3-phenoxypiperidin-1-yl)phenyl)pentanoic acid]
41 | 0.31 µM | O=C(O)CCCCc1ccc(C2CCCCC(Oc3ccccc3)C2)cc1 (single isomer, unassigned) [Example 12, 5-(4-(3-Phenoxycycloheptyl)phenyl)pentanoic acid]
42 | 0.27 µM | O=C(O)COCCc1ccc(C2CCCCC(Oc3ccccc3)C2)cc1 (single isomer, unassigned) [Example 17, 2-(4-(3-Phenoxycycloheptyl)phenethoxy)acetic acid]
43 | 2.26 µM | O=C(O)COCCc1ccc(N2CCCC(c3ccccc3)C2)cc1 (stereo not drawn) [Example 57]
44 | 3.75 µM | O=C(O)[C@H]1C[C@@H]1CCc1ccc([C@@H]2CCC[C@@H](Oc3ccccc3)C2)cc1 (racemic) [Example 40]
45 | 0.18 µM | O=C(O)COCCc1ccc([C@@H]2CCC[C@H](Oc3ccccc3)C2)cc1 (single isomer, unassigned) [Example 6]
